Where two headings read alike, the source gives them in different places.
Molecular target: T1, GST-tagged ROR gamma ligand binding domain (LBD) (Homo sapiens, UniProt P51449)
T1 construct: purchased Invitrogen
T1 sequence (P51449 269-508 limits assumed): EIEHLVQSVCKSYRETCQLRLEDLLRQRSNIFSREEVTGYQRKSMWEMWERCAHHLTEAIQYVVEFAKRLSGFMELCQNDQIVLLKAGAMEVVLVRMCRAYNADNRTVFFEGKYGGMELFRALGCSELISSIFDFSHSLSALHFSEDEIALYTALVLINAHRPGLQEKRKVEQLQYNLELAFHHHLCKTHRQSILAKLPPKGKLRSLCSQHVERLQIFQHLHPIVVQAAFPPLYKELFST
Test: TR-FRET assay for ROR gamma (Lantha Screen, co-activator peptide recruitment)
Assay type: biochemical
Conditions: for inhibition at 1 µM: read-out: % inhibition at 1 μM; for inhibition at 10 µM: read-out: % inhibition at 10 μM

[1] = class symbols, from dose response curve, read-out: IC50 value
[2] = compound concentration 1 μM, TR-FRET ratio 520/495, percent of control
[3] = compound concentration 10 μM, TR-FRET ratio 520/495, percent of control

Row | SMILES | IC50 [1] | inhibition at 1 µM [2] | inhibition at 10 µM [3] | IC50 | inhibition at 1 µM | inhibition at 10 µM
1 | Cc1ccccc1Oc1nn(-c2ccc(C(=O)O)cc2)c2ccccc12 [Example 1, 4-[3-(2-Methylphenoxy)-1H-indazol-1-yl]benzoic acid] | < 50 nM | 90% | 96.3% |  |  | 
2 | O=C(O)c1ccc(-n2nc(Oc3ccccc3C(F)(F)F)c3ccccc32)cc1 [Example 2, 4-{3-[2-(Trifluoromethyl)phenoxy]-1H-indazol-1-yl}benzoic acid] | < 50 nM | 96.9% | 98.4% |  |  | 
3 | Cc1cccc(Oc2nn(-c3ccc(C(=O)O)cc3)c3ccccc23)c1 [Example 3, 4-[3-(3-Methylphenoxy)-1H-indazol-1-yl]benzoic acid] |  | 23.4% | 34.6% |  |  | 
4 | O=C(O)c1ccc(-n2nc(Oc3ccccc3)c3ccccc32)cc1 [Example 4, 4-(3-Phenoxy-1H-indazol-1-yl)benzoic acid] |  | 31.2% | 37% |  |  | 
5 | O=C(O)c1ccc(-n2nc(Oc3c(Cl)cccc3Cl)c3ccccc32)cc1 [Example 5, 4-[3-(2,6-Dichlorophenoxy)-1H-indazol-1-yl]benzoic acid] | < 50 nM | 98.4% | 99% |  |  | 
6 | O=C(O)c1ccc(-n2nc(Oc3c(Cl)cccc3Cl)c3ccccc32)c(F)c1 [Example 6, 4-[3-(2,6-Dichlorophenoxy)-1H-indazol-1-yl]-3-fluorobenzoic acid] | < 50 nM | 99.2% | 99.6% |  |  | 
7 | O=C(O)c1ccc(-n2nc(Oc3c(Cl)cccc3C(F)(F)F)c3ccccc32)c(F)c1 [Example 7, 4-{3-[2-Chloro-6-(trifluoromethyl)phenoxy]-1H-indazol-1-yl}-3-fluorobenzoic acid] | < 50 nM | 95.3% | 94.8% |  |  | 
8 | O=C(O)c1ccc(-n2nc(Oc3ccccc3C(F)(F)F)c3ccccc32)c(F)c1 [Example 8, 3-Fluoro-4-{3-[2-(trifluoromethyl)phenoxy]-1H-indazol-1-yl}benzoic acid] | < 50 nM | 96.4% | 98.2% |  |  | 
9 | O=C(O)c1ccc(-n2nc(Oc3ccc(Cl)cc3C(F)(F)F)c3ccccc32)c(F)c1 [Example 9, 4-{3-[4-Chloro-2-(trifluoromethyl)phenoxy]-1H-indazol-1-yl}-3-fluorobenzoic acid] | > 100 nM | 86.5% | 96.9% |  |  | 
10 | O=C(O)c1ccc(-n2nc(Oc3c(Cl)cccc3C(F)F)c3ccccc32)c(F)c1 [Example 10, 4-{3-[2-Chloro-6-(difluoromethyl)phenoxy]-1H-indazol-1-yl}-3-fluorobenzoic acid] | < 50 nM | 100% | 100% |  |  | 
11 | O=C(O)c1ccc(-n2nc(Oc3c(Cl)cccc3Cl)c3cccc(F)c32)c(F)c1 [Example 11, 4-[3-(2,6-Dichlorophenoxy)-7-fluoro-1H-indazol-1-yl]-3-fluorobenzoic acid] | < 50 nM | 98.1% | 97.8% |  |  | 
12 | O=C(O)c1ccc(-n2nc(Oc3c(Cl)cccc3C(F)F)c3cccc(F)c32)c(F)c1 [Example 12, 4-{3-[2-Chloro-6-(difluoromethyl)phenoxy]-7-fluoro-1H-indazol-1-yl}-3-fluorobenzoic acid] | < 50 nM | 94.4% | 95.1% |  |  | 
13 | O=C(O)c1ccc(-n2nc(Oc3c(Cl)cccc3C3CC3)c3ccccc32)c(F)c1 [Example 13, 4-[3-(2-Chloro-6-cyclopropylphenoxy)-1H-indazol-1-yl]-3-fluorobenzoic acid] | < 50 nM | 91.7% | 91.7% |  |  | 
14 | O=C(O)c1ccc(-n2nc(Oc3c(Cl)cccc3C3CC3)c3cccc(F)c32)c(F)c1 [Example 14, 4-[3-(2-Chloro-6-cyclopropylphenoxy)-7-fluoro-1H-indazol-1-yl]-3-fluorobenzoic acid] | < 50 nM | 91.4% | 91.2% |  |  | 
15 | O=C(O)c1ccc(-n2cc(C(=O)c3ccccc3F)c3ccccc32)cc1 [Example 15, 4-{3-[(2-Fluorophenyl)carbonyl]-1H-indol-1-yl}benzoic acid] | > 100 nM | 76.4% | 95.8% |  |  | 
16 | O=C(O)c1ccc(-n2cc(C(=O)c3c(Cl)cccc3Cl)c3ccccc32)cc1 [Example 16, 4-{3-[(2,6-Dichlorophenyl)carbonyl]-1H-indol-1-yl}benzoic acid] |  |  |  | < 50 nM | 96% | 97.2%
17 | O=C(O)c1ccc(-n2cc(C(=O)c3ccccc3Cl)c3ccccc32)cc1 [Example 17, 4-{3-[(2-Chlorophenyl)carbonyl]-1H-indol-1-yl}benzoic acid] |  |  |  | 50 to 100 nM | 84.9% | 96%

Row | SMILES | IC50 [1] | inhibition at 1 µM [2] | inhibition at 10 µM [3] | IC50 | inhibition at 1 µM | inhibition at 10 µM
18 | O=C(O)c1ccc(-n2cc(C(=O)c3c(F)cccc3F)c3ccccc32)cc1 [Example 18, 4-{3-[(2,6-Difluorophenyl)carbonyl]-1H-indol-1-yl}benzoic acid] |  |  |  | 50 to 100 nM | 81% | 94.5%
19 | O=C(O)c1ccc(-n2cc(C(=O)c3ccccc3Cl)c3ccccc32)c(F)c1 [Example 20, 4-{3-[(2-Chlorophenyl)carbonyl]-1H-indol-1-yl}-3-fluorobenzoic acid] | < 50 nM | 95.7% | 100% |  |  | 
20 | O=C(O)c1ccc(-n2cc(C(=O)c3c(Cl)cccc3C(F)(F)F)c3ccccc32)c(F)c1 [Example 21, 4-{3-[2-Chloro-6-(trifluoromethyl)benzoyl]-1H-indol-1-yl}-3-fluorobenzoic acid] |  |  |  | < 50 nM | 92.2% | 92.4%
21 | O=C(O)c1ccc(-n2cc(C(=O)c3c(Cl)cccc3Cl)c3c(F)cccc32)c(F)c1 [Example 22, 4-[3-(2,6-Dichlorobenzoyl)-4-fluoro-1H-indol-1-yl]-3-fluorobenzoic acid] |  |  |  | < 50 nM | 96.8% | 99.3%
22 | O=C(O)c1ccc(-n2cc(C(=O)c3c(Cl)cccc3Cl)c3cc(F)ccc32)c(F)c1 [Example 23, 4-[3-(2,6-Dichlorobenzoyl)-5-fluoro-1H-indol-1-yl]-3-fluorobenzoic acid] | < 50 nM | 98.2% | 96.7% |  |  | 
23 | O=C(O)c1ccc(-n2cc(C(=O)c3c(Cl)cccc3Cl)c3ccc(F)cc32)c(F)c1 [Example 24, 4-[3-(2,6-Dichlorobenzoyl)-6-fluoro-1H-indol-1-yl]-3-fluorobenzoic acid] | < 50 nM | 95.8% | 97.8% |  |  | 
24 | CN(C)C(=O)c1ccc2c(C(=O)c3c(Cl)cccc3Cl)cn(-c3ccc(C(=O)O)cc3F)c2c1 [Example 26, 4-[3-(2,6-Dichloro-benzoyl)-6-dimethylcarbamoyl-indol-1-yl]-3-fluoro-benzoic acid] |  |  |  |  | 31.3% | 33.7%
25 | O=C(O)c1ccc(-n2cc(C(=O)c3c(Cl)cccc3Cl)c3cccnc32)c(F)c1 [Example 27, 4-[3-(2,6-Dichlorobenzoyl)-1H-pyrrolo[2,3-b]pyridin-1-yl]-3-fluorobenzoic acid] | < 50 nM | 95.6% | 97.9% |  |  | 
26 | O=C(O)c1ccc(-n2nc(C(=O)c3ccccc3)c3ccccc32)cc1 [Example 28, 4-[3-(Phenylcarbonyl)-1H-indazol-1-yl]benzoic acid] |  | 30.2% | 62.9% |  |  | 
27 | O=C(O)c1ccc(-n2nc(C(=O)c3c(Cl)cccc3Cl)c3ccccc32)cc1 [Example 29, 4-[3-(2,6-Dichlorobenzoyl)-1H-indazol-1-yl]benzoic acid] | < 50 nM | 96.9% | 94.3% |  |  | 
28 | O=C(O)c1ccc(-n2nc(C(=O)c3ccccc3)c3ccccc32)c(F)c1 [Example 30, 4-(3-Benzoyl-1H-indazol-1-yl)-3-fluorobenzoic acid] |  | 47.1% | 88.9% |  |  | 
29 | O=C(O)c1ccc(-n2nc(C(=O)c3c(Cl)cccc3Cl)c3ccccc32)c(F)c1 [Example 31, 4-[3-(2,6-Dichlorobenzoyl)-1H-indazol-1-yl]-3-fluorobenzoic acid] | < 50 nM | 96.6% | 91.6% |  |  | 
30 | O=C(O)c1ccc(-n2nc(C(=O)c3c(Cl)cccc3Cl)c3cccc(F)c32)cc1 [Example 32, 4-{3-[(2,6-Dichlorophenyl)carbonyl]-7-fluoro-1H-indazol-1-yl}benzoic acid] | < 50 nM | 94.6% | 90.4% |  |  | 
31 | O=C(O)c1ccc(-n2nc(C(=O)c3c(Cl)cccc3C(F)(F)F)c3ccccc32)c(F)c1 [Example 33, 4-(3-{[2-Chloro-6-(trifluoromethyl)phenyl]carbonyl}-1H-indazol-1-yl)-3-fluorobenzoic acid] | < 50 nM | 98.1% | 94.1% |  |  | 
32 | O=C(O)c1ccc(-n2nc(C(=O)c3c(Cl)cccc3C(F)(F)F)c3ccccc32)cc1 [Example 34, 4-(3-{[2-Chloro-6-(trifluoromethyl)phenyl]carbonyl}-1H-indazol-1-yl)-benzoic acid] | < 50 nM | 96.9% | 92% |  |  | 
33 | O=C(O)c1ccc(-n2nc(C(=O)c3c(Cl)cccc3C3CC3)c3cccc(F)c32)cc1 [Example 35, 4-{3-[(2-Chloro-6-cyclopropylphenyl)carbonyl]-7-fluoro-1H-indazol-1-yl}benzoic acid] | < 50 nM | 92.3% | 89.2% |  |  | 

From US9682977B2, “Bicyclic heteroaryl indole analogues useful as ROR gamma modulators” (Glenmark Pharmaceuticals S.A., priority 2013, dated 2017)
